Measured values published in patent publication US20190211317A1, “PEPTIDES AND NANOPARTICLES FOR INTRACELLULAR DELIVERY OF GENOME-EDITING MOLECULES” (Aadigen, LLC, priority 2016, published 2019).
Values joined by “and” are separate entries in the source; they are usually repeats but may differ in a detail not shown here. Equal values may be shown once. Non-standard residues stand in square brackets, D forms with d. Residues, ends and D or L forms follow the SMILES beside them. βAla = NCCC(=O)O

How the values were obtained:
[1] = CPP/CAS9 and CPP/CAS9:gRNA particle size, polydispersity, zeta potential (Zetasizer 4); format: physicochemical
Method: The CPP/CAS9 and CPP/CAS9/sgRNA particles were further characterized; the mean size, polydispersity and zeta potential were measured with Zetasizer 4 apparatus (Malvern Ltd). […] The mean size and the polydispersity of the CCP/CAS9 and CCP/CAS9:gRNA complexes were determined at 25° C. for 3 min per measurement and zeta potential was measured with Zetasizer 4 apparatus (Malvern Ltd).

[2] = system: EGFP reporter gene in EGFP-U2OS, EGFP-HEK, EGFP-JURKAT cells; test: EGFP reporter gene disruption from CPP delivery of CAS9:sgRNA (flow cytometry); format: cell-based, human; details: for reduction of EGFP-positive cells: EGFP-JURKAT; for decrease in EGFP expression: CAS9:gRNA 50 nM, CPP:cargo 20:1; for reduction of EGFP-expressing cells / loss of EGFP expression: JURKAT; for reduction of EGFP-expressing cells / loss of EGFP expression / loss of EGFP expression: 1 nM CAS9:gRNA; for loss of EGFP expression: both cell lines (U2OS, HEK);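 as to all read-outs here: cells carrying one integrated EGFP reporter received peptide-complexed CAS9 preloaded 1:1 with EGFP sgRNA, cultured 72 h, then EGFP level read by flow cytometry, lipofectamine 2000 and RNAiMAX as positive controls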
Method: Efficacy of CPP-mediated delivery was quantified using a well-established CAS9-induced gene disruption method (Fu et al, 2013, supra), by targeting a specific site in the exogenous EGFP gene reporter in three human cell lines expressing EGFP (GFP-U2OS, EGFP-HEK, EGFP-JURKAT).
Stock solutions of amphipathic peptides were prepared at 1 mg/mL in distilled water and sonicated for 10 min. CAS9 protein was preloaded with purified EGFP sgRNA at a molar ratio of 1:1 and incubated for 10 min prior to forming complexes with the peptides. Preloaded CAS9/gRNA complexes (10 nM, 25 nM, and 50 nM) were mixed with CPPs at 5:1, 10:1 and 20:1 molar ratios of CPP to cargo and incubated for 30 min at 37° C. prior to cell transfection.
Cell line containing a single integrated EGFP reporter gene (GFP-U2OS, EGFP-HEK and EGFP-JURKAT) were cultured in Dulbecco's Modified Eagle's Medium (DMEM), supplemented with 2 mM glutamine, 1% antibiotics (streptomycin 10,000 μg/mL, penicillin, 10,000 IU/mL) and 10% (w/v) foetal calf serum (FCS) at 37° C. in a humidified atmosphere containing 5% CO2. A total of 150,000 cells seeded in a 35 mm dish the day prior to transfection were grown to 50-60% confluence and overlaid with 200 μl of preformed complexes, incubated for 3-5 min, then 400 μl of DMEM was added. After 30 min incubation at 37° C., 1 mL of fresh DMEM containing 16% FCS was added to reach a final FCS concentration of 10%, without removing the overlay of CPP/CAS9-gRNA complexes. Cells were returned to the incubator for 72 hours.
CAS9-induced double-strand break formation was analyzed using flow cytometry by monitoring level of EGFP expression. […] Both lipofectamine 2000 and RNAiMAX delivery methods were used as positive controls.

[3] = system: endogenous EMX1 gene in U2OS, JURKAT and K562 cells; test: EMX1 gene editing from CPP delivery of CAS9/gRNA (T7E1 assay); format: cell-based, human
Method: RNAiMAX delivery was used as a positive control as it was previously reported to show better results than Lipofectamine 2000 (Zuris et al., 2015, supra). […] Cells were returned to the incubator for 72 hours.

[4] = system: endogenous EMX1 and exogenous EGFP reporter genes in GFP-U2OS, EGFP-JURKAT cells; test: Delivery of multiple RGEN/gRNA complexes: EMX1 and EGFP editing; format: cell-based, human
Method: RNAiMAX delivery was used as positive control. Cells were treated as described previously and CAS9-induced NHEJ analyzed 72 hr after transfection. […] The deletion (indel) frequency in the EMX1 gene was quantified using the T7E1 assay and loss of EGFP expression was monitored by flow cytometry. Data for on-target mutations induced by RGEN/gRNA are reported as an average of 3 separate experiments.

[5] = system: endogenous EMX1 gene in U2OS, HEPG2, K562 cells and primary human fibroblasts; test: EMX1 editing from CPP delivery of CAS9 mRNA/gRNA (T7E1); format: cell-based
Method: CPP/CAS9 mRNA/gRNA complexes were formed by mixing the CAS9 mRNA (0.5 μg) and gRNA (5 μg) with CPP at a 20:1 molar ratio of CPP:cargo and incubating for 30 min at 37° C. prior to cell transfection. Suspension and adherent cells were transfected according to the protocols described in Example 13a. RNAiMAX-mediated delivery (Invitrogen Thermo Fisher France) was used as a control. EMX1 gene editing was analyzed at day 3 and day 6 by T7E1 assay and quantified using a Fragment Analyzer System.

[6] = system: endogenous EMX1 gene in U2OS, HEPG2 cells and primary human fibroblasts; test: EMX1 editing from CPP delivery of CAS9-expressing plasmid and gRNA (T7E1); format: cell-based; details: the three cell types
Method: EMX1-targeting gRNAs were prepared as described above. CPP/plasmid/gRNA complexes were prepared by mixing 0.5 μg of a CAS9-expressing plasmid (Addgene MLM3639-Plasmid #42252) and 5 μg gRNA with CPP at a 20:1 molar ratio of CPP to nucleic acid (plasmid+gRNA) and incubating for 30 min at 37° C. prior to cell transfection. Suspension and adherent cells were transfected according to the protocols described in Example 13a. Lipofectamine 2000- and RNAiMAX-mediated delivery methods (Invitrogen Thermo Fisher France) were used as controls. EMX1 gene editing was analyzed at day 3 and day 6 by T7E1 assay and quantified using a Fragment Analyzer System.

Swiss mice = test: In vivo delivery of CAS9 mRNA by three CPPs: CAS9 expression in tissues (ELISA); design: species or system mouse; details: for ELISA signal for CAS9 protein expression: day 3 and day 6, CAS9 mRNA 5 μg i.v., 20:1; for CAS9 protein expression: other tissues examined
Method: Free CAS9 mRNA in physiological buffer was injected as a control.
At day 3, day 6, and day 10 following injection, animals were sacrificed and tissues including lung, liver, brain, kidney, heart, spleen, blood, pancreas, muscle, bone marrow, and intestine were collected. Tissues were homogenized and CAS9 protein levels in protein extracts were analyzed by ELISA using an antibody against CRISPR/Cas9 (SBI clone 7A9).

PCSK9 = test: In vivo CAS9 mRNA/gRNA targeting PCSK9: serum PCSK9 (ELISA); design: species or system mouse
Method: Polyadenylated and capped CAS9 mRNA was obtained from ThermoFisher, and gRNA (5 μg) targeting PCSK9 Exon 1 was obtained from Eurogentec. […] Free CAS9 mRNA/gRNA was injected as a control.
Blood samples were collected by saphenous vein bleeds at multiple time points (day 3, 6, 10, and 21), collecting no more than 100 μl or 10% of total blood volume per week. Serum levels of PCSK9 were determined by ELISA using the Mouse Proprotein Convertase 9/PCSK9 Quantikine ELISA Kit (MPC-900, R&DSystems).

primary human T cells = test: CAS9 protein expression in primary human T cells after CAS9 mRNA or plasmid delivery (ELISA); format: cell-based; details: day 3
Method: T cells were isolated from PBMCs using anti-CD3/anti-CD28 antibodies bound to paramagnetic beads (Dynabeads ClinExVivo CD3/CD28, Invitrogen) at a ratio of 3:1 (beads:cells). The cells and beads were co-incubated for 2 hours at room temperature and CD3^+ cell enrichment was performed using Dynal ClinExVIVO MPC magnet (Thermo Fisher). The anti-CD3/anti-CD28 paramagnetic beads were removed, washed and concentrated. Cells in the CD3^+ fraction were resuspended in activation media at a concentration of 1×10^6 cells/ml with AIM-V medium (Thermo Fishers) supplemented with 10% fetal calf serum, 300 IU/ml IL2 and 50 ng/ml OKT3 (MuromonAB-CD3) for two days.
CPP/CAS9 complexes were formed by mixing the CAS9 mRNA (0.5 μg) with CPP at a 20:1 molar ratio of CPP:CAS9 mRNA and incubating for 30 min at 37° C. prior to cell transfection. CPP/CAS9-expressing plasmid complexes were formed by mixing the CAS9-expressing plasmid (Addgene MLM3639-Plasmid #42252) (0.5 μg) with CPP at a 20:1 molar ratio of CPP:plasmid and incubating for 30 min at 37° C. prior to cell transfection.
Cells were transfected according to the protocol for suspension cells described in Example 13a. RNAiMAX and lipofectamine 2000 lipid-based delivery methods (Invitrogen Thermo Fisher France) were used as controls, and transfections were performed following the manufacturer's instructions. CAS9 protein expression level was analyzed at multiple time points over a period of 10 days as determine by ELISA on protein extracts using antibodies against CRISPR/Cas9 obtained from Diagenode (Diagenode cat. No. C15200223) and ABCAM (clone 7A9-ab191468).

[7] = system: endogenous EMX1 gene in primary human T cells; test: EMX1 editing in primary human T cells with CAS9 mRNA, protein or plasmid plus gRNA (T7E1); format: cell-based
Method: CPP/CAS9 mRNA/gRNA complexes were formed by mixing the CAS9 mRNA (0.5 μg) and gRNA (5 μg) with CPP at a 20:1 molar ratio of CPP to nucleic acid (mRNA+gRNA) and incubating for 30 min at 37° C. prior to cell transfection. CPP/plasmid/gRNA complexes were formed by mixing CAS9 expressing plasmid (Addgene MLM3639-Plasmid #42252) (0.5 μg) and gRNA (5 μg) with CPP at a 20:1 molar ratio of CPP to nucleic acid (plasmid+gRNA) and incubating for 30 min at 37° C. prior to cell transfection. CPP/CAS9/gRNA complexes were formed by mixing preloaded CAS9/gRNA complexes (2.5 μg/5 μg CAS9/gRNA) with CPP at a 20:1 molar ratio of CPP to complex and incubating for 30 min at 37° C. prior to cell transfection.
T cells were transfected according to the protocol for suspension cells described in Example 13a. Lipofectamine 2000- and RNAiMAX-mediated delivery methods (Invitrogen Thermo Fisher France) were included as controls. EMX1 gene editing was analyzed at day 3, day 6, and day 10 by T7E1 assay and quantified using a Fragment Analyzer System.

[8] = Particle size, polydispersity and zeta potential with different cargoes (Zetasizer NANO ZS P); format: physicochemical; details: 20:1; for formation of stable nanoparticles: with CAS9-mRNA and CAS9-mRNA/gRNA complex
Method: The CPP/CAS9-protein, CPP/CAS9-protein/sgRNA, CPP/CAS9-mRNA, CPP/CAS-mRNA/sgRNA particles were characterized; the mean size, polydispersity, and zeta potential were measured with a Zetasizer NANO ZS P apparatus (Malvern Ltd).
The mean size and the polydispersity of the CCP/cargo complexes were determined at 25° C. for 5 min per measurement and zeta potential was measured with a Zetasizer NANO ZS P apparatus (Malvern Ltd).

[9] = system: U2OS, HEPG2, K562 cells and primary human fibroblasts; test: CAS9 protein expression after CPP delivery of CAS9 mRNA (ELISA); format: cell-based; details: day 3
Method: CPP/CAS9 mRNA complexes were formed by mixing the CAS9 mRNA (0.5 μg) with CPP at a 20:1 molar ratio of CPP:CAS9 mRNA and incubating for 30 min at 37° C. prior to cell transfection. Cells were transfected according to optimized protocols for either adherent or suspension cell lines.
Human primary fibroblasts were freshly obtained and grown in flasks pre-coated with a gelatin-based coating solution and incubated in Culture Complete Growth Medium for 3 days before expansion and treatment. U2OS cells were cultured in Dulbecco's Modified Eagle's Medium (DMEM), supplemented with 2 mM glutamine, 1% antibiotics (streptomycin 10,000 μg/mL, penicillin, 10,000 IU/mL) and 10% (w/v) foetal calf serum (FCS), at 37° C. in a humidified atmosphere containing 5% CO2. 35 mm dishes seeded with 150,000 cells the day prior to transfection were grown to 50-60% confluence and set up to be at about 70% confluences at the time of transfection. Before transfection, cells were washed with DMEM (2×) followed by PBS (1×). Cells were then overlaid with 0.2 ml of complex solution (16 μl CPP/Cargo complex in water+184 μl OPTiMEM without antibiotics), mixed gently, and incubated for 10 min at 37° C. 0.8 mL of fresh OPTiMEM or DMEM was then added and cells were incubated for 20 min at 37° C. 2 mL of complete OPTiMEM (high glucose) or DMEM containing 11.4% FCS was then added in order to reach a final FCS concentration of 10%, without removing the overlay of CPP/Cargo complexes. Cells were returned to the incubator (37° C., 5% CO2) and assayed at 72 hours post transfection.
K562 and HEpG2 cells were set up to be at about 70% confluence at the time of transfection. The cells were maintained in high glucose DMEM media with 10% serum. Before transfection, cells were harvested by centrifugation, then washed with DMEM (2×) followed by PBS (1×). Cells were then resuspended in 0.2 ml of complex solution (16 μl CPP/Cargo complex in water+184 μl OPTiMEM without antibiotics), mixed gently, and incubated for 10 min at 37° C. 0.8 mL of fresh OPTiMEM was then added and cells were incubated for 20 min at 37° C. 2 mL of complete OPTiMEM (high glucose) containing 11.4% FCS was then added in order to reach a final FCS concentration of 10%, without removing the overlay of CPP/Cargo complexes. Cells were returned to the incubator (37° C., 5% CO2) and assayed at 72 hours post transfection.
RNAiMAX lipid-based delivery (Invitrogen Thermo Fisher France) was used as a control and transfections were performed following the manufacturer's instructions. CAS9 expression level was analyzed at multiple time points over a period of 10 days as determined by ELISA on protein extracts using antibodies against CRISPR/Cas9 obtained from Diagenode (Diagenode cat. No. C15200223) and ABCAM (clone 7A9-ab191468).

[10] = system: endogenous EMX1 gene in U2OS, HEPG2, K562 cells and primary human fibroblasts; test: EMX1 editing from CPP delivery of CAS9 protein/gRNA (T7E1); format: cell-based; details: each of the cell types tested; 2.5 μg/5 μg CAS9/gRNA
Method: CPP/CAS9/gRNA complexes were prepared by mixing preloaded CAS9/gRNA complexes (2.5 μg/5 μg CAS9/gRNA) with CPP peptides at a 20:1 molar ratio of CPP to cargo and incubating for 30 min at 37° C. prior to cell transfection. Cells were transfected according to the protocols described in Example 13a, and RNAiMAX-mediated delivery (Invitrogen Thermo Fisher France) was used as a control. EMX1 gene editing was analyzed at day 3 and day 6 by T7E1 assay and quantified using a Fragment Analyzer System.

[11] = system: U2OS and HEPG2 cell lines and primary human fibroblasts; test: CAS9 protein expression after CPP delivery of CAS9-expressing plasmid (ELISA); format: cell-based; details: day 6
Method: CPP/plasmid complexes were prepared by mixing 0.5 μg of a CAS9-expressing plasmid (Addgene MLM3639-Plasmid #42252) with CPP at a 20:1 molar ratio of CPP:cargo and incubating for 30 min at 37° C. prior to cell transfection. Cells were transfected according to the protocols for adherent and suspension cells described in Example 13a. Lipofectamine 2000 was used as lipid-based delivery control. CAS9 protein expression level was analyzed at multiple time points over a period of 10 days as determined by ELISA on protein extracts using antibodies against CRISPR/Cas9 obtained from Diagenode (Diagenode cat. No. C15200223) and ABCAM (clone 7A9-ab191468).

[12] = day 1, CAS9 mRNA 5 μg/gRNA 5 μg single i.v.
[13] = CAS9-expressing plasmid and gRNA, day 3
[14] = with CAS9-mRNA and CAS9-mRNA/gRNA

In the case of `CC(C)C[C@H](NC(=O)CCN)C(=O)N[C@@H](CCCNC(=N)N)C(=O)N[C@@H](Cc1c[nH]c2ccccc12)C(=O)N[C@@H](Cc1c[nH]c2ccccc12)C(=O)N[C@@H](CC(C)C)C(=O)N[C@@H](CCCNC(=N)N)C(=O)N[C@@H](Cc1c[nH]c2ccccc12)C(=O)N[C@@H](C)C(=O)N[C@@H](CO)C(=O)N[C@@H](CCCNC(=N)N)C(=O)N[C@@H](Cc1c[nH]c2ccccc12)C(=O)N[C@@H](Cc1ccccc1)C(=O)N[C@@H](CO)C(=O)N[C@@H](CCCNC(=N)N)C(=O)N[C@@H](Cc1c[nH]c2ccccc12)C(=O)N[C@@H](C)C(=O)N[C@@H](Cc1c[nH]c2ccccc12)C(=O)N[C@@H](Cc1c[nH]c2ccccc12)C(=O)N[C@@H](CCCNC(=N)N)C(=O)O` [VEPEP-9], the PI ([1]; Cas9:gRNA, molar ratio 20/1) is reported as 0.58 and 0.58 ± 0.1, the Size ([1]; Cas9:gRNA, molar ratio 20/1) is reported as 170±10 nm and the zeta ([1]; Cas9:gRNA, molar ratio 20/1) is reported as 39 ± 8 MV. The Pt ([1]; Cas9, molar ratio 20/1) was 0.45 ± 0.1, the Size ([1]; Cas9, molar ratio 20/1) was 280 ± 20 nm and the zeta ([1]; Cas9, molar ratio 20/1) was 32 ± 5 mV. For the same compound, the “formation of stable particles with preloaded CAS9:gRNA complex” value ([1]; molar ratio 10:1) was “neither CADY nor VEPEP-9 formed stable particles”, the “reduction of EGFP-positive cells” value [2] was 22% and the “decrease in EGFP expression” value ([2]; HEK) was 58%. For the same compound, the “reduction of EGFP-expressing cells / loss of EGFP expression” value [2] was “no change in EGFP expression”, the “decrease in EGFP expression” value ([2]; U2OS) was 55% and the “loss of EGFP expression” value [2] was 5%. The “Mean indel Frequency ± S.E.M” value ([3]; JURICAT, CAS9/sgRNA 25 nM) was 21% and 21 ± 7%, the “Mean indel Frequency ± S.E.M” value ([3]; JURKAT, CAS9/sgRNA 50 nM) was 21 ± 5% and the “Mean indel Frequency ± S.E.M” value ([3]; K562, CAS9/sgRNA 25 nM) was 29% and 29 ± 7%. For the same compound, the “Mean indel Frequency ± S.E.M” value ([3]; K562, CAS9/sgRNA 50 nM) was 25 ± 5%, the “Mean indel Frequency ± S.E.M” value ([3]; U2OS, CAS9/sgRNA 25 nM, 20:1) was 27% and 27 ± 3% and the “Mean indel Frequency ± S.E.M” value ([3]; U2OS, CAS9/sgRNA 50 nM) was 30 ± 6%. For the same compound, the “Mean indel Frequency ± S.E.M” value ([4]; JURKAT, EGFP) was 15 ± 8%, the “Mean indel Frequency ± S.E.M” value ([4]; JURKAT, EMX1) was 10 ± 2% and the “Mean indel Frequency ± S.E.M” value ([4]; U2OS, EGFP, 25 nM each complex) was 32 ± 4%. For the same compound, the “Mean indel Frequency ± S.E.M” value ([4]; U2OS, EMX1) was 31 ± 5%, the mean indel frequencies [5] was “about 10%” and the mean indel frequencies [6] was 35-40%. For the same compound, the CAS9 expression (Swiss mice; day 10, brain) was “CAS9 expression was observed”, the CAS9 expression (Swiss mice; day 10, liver) was “CAS9 expression was observed” and the CAS9 expression (Swiss mice; day 10, lymph node) was “CAS9 expression was observed”. The “ELISA signal for CAS9 protein expression” value (Swiss mice; liver) was > 8 times that of background, the CAS9 protein expression (Swiss mice) was “Little to no increase” and the “decrease of serum levels of PSCK9” value (PCSK9; [12]) was 13%. For the same compound, the “decrease of serum levels of PSCK9” value (PCSK9; day 3) was 29%, the “decrease of serum levels of PSCK9” value (PCSK9; day 6) was 31% and the “decrease of serum levels of PSCK9” value (PCSK9; day 10) was 27%. For the same compound, the “decrease of serum levels of PSCK9” value (PCSK9; day 14) was 25%, the “decrease of serum levels of PSCK9” value (PCSK9; day 20) was 24% and the “ELISA signal for CAS9 protein expression” value (primary human T cells; CAS9-expressing plasmid 0.5 μg) was “about 4 times the background”. The “ELISA signal for CAS9 protein expression” value (primary human T cells; CAS9 mRNA 0.5 μg) was “about 4 times the background”, the mean indel frequencies [7, 13] was “about 30%” and the mean indel frequencies ([7]; CAS9 protein/gRNA) was “about 20%”. For the same compound, the “formation of stable nanoparticles” value [8] was “able to form stable nanoparticles”, the Mean diameter [8, 14] was roughly 120 nm and the mean particle size ([8]; with preloaded CAS9-protein/gRNA complex) was 210±20.

With `CC(C)C[C@H](NC(=O)CCN)C(=O)N[C@@H](Cc1c[nH]c2ccccc12)C(=O)N[C@@H](CCCNC(=N)N)C(=O)N[C@@H](C)C(=O)N[C@@H](CC(C)C)C(=O)N[C@@H](Cc1c[nH]c2ccccc12)C(=O)N[C@@H](CCCNC(=N)N)C(=O)N[C@@H](CC(C)C)C(=O)N[C@@H](Cc1c[nH]c2ccccc12)C(=O)N[C@@H](CCCNC(=N)N)C(=O)N[C@@H](CO)C(=O)N[C@@H](CC(C)C)C(=O)N[C@@H](Cc1c[nH]c2ccccc12)C(=O)N[C@@H](CCCNC(=N)N)C(=O)N[C@@H](CC(C)C)C(=O)N[C@@H](CC(C)C)C(=O)N[C@@H](Cc1c[nH]c2ccccc12)C(=O)N[C@@H](CCCCN)C(=O)N[C@@H](C)C(=O)O` [VEPEP-6] (H-[βAla]LWRALWRLWRSLWRLLWKA-OH; N-terminus and C-terminus assumed) the “reduction of EGFP-positive cells” value [2] was “no significant change”, the “decrease in EGFP expression” value ([2]; HEK) was 30% and the “reduction of EGFP-expressing cells / loss of EGFP expression” value [2] was “no change in EGFP expression”. For the same compound, the “decrease in EGFP expression” value ([2]; U2OS) was 25%, the “loss of EGFP expression” value [2] was “no change in EGFP expression” and the “ELISA signal for CAS9 protein expression” value ([9]; U2OS, K562, HepG2, CAS9 mRNA 0.5 μg) was roughly 30 times the background. For the same compound, the “ELISA signal for CAS9 protein expression” value ([9]; primary human fibroblasts) was “about 20 times the background”, the mean indel frequencies [5] was “about 60%” and the mean indel frequencies [10] was “no significant EMX1 gene editing”. For the same compound, the “ELISA signal for CAS9 protein expression” value ([11]; U2OS and HEPG2) was “about 4 times the background”, the “ELISA signal for CAS9 protein expression” value ([11]; primary human fibroblasts) was “about 2 times the background” and the CAS9 expression (Swiss mice; day 10, brain) was “CAS9 expression was observed”. For the same compound, the CAS9 expression (Swiss mice; day 10, liver) was “CAS9 expression was observed”, the CAS9 expression (Swiss mice; day 10, lung) was “CAS9 expression was observed” and the “ELISA signal for CAS9 protein expression” value (Swiss mice; liver) was > 15 times that of background. The CAS9 expression (Swiss mice; lung) was “about 8 times that of background”, the CAS9 protein expression (Swiss mice) was “Little to no increase” and the “decrease of serum levels of PSCK9” value (PCSK9; [12]) was 64%. The “decrease of serum levels of PSCK9” value (PCSK9; day 3) was 73%, the “decrease of serum levels of PSCK9” value (PCSK9; day 6) was 75% and the “decrease of serum levels of PSCK9” value (PCSK9; day 10) was 73%. For the same compound, the “decrease of serum levels of PSCK9” value (PCSK9; day 14) was 71%, the “decrease of serum levels of PSCK9” value (PCSK9; day 20) was 70% and the “ELISA signal for CAS9 protein expression” value (primary human T cells; CAS9-expressing plasmid 0.5 μg) was “little to no CAS9 expression”. For the same compound, the “ELISA signal for CAS9 protein expression” value (primary human T cells; CAS9 mRNA 0.5 μg) was roughly 17 times the background, the mean indel frequencies [7, 13] was “little to no EMX1 gene editing” and the mean indel frequencies ([7]; CAS9 protein/gRNA) was “little to no EMX1 gene editing”. The “formation of stable nanoparticles” value [8] was “able to form stable nanoparticles”, the Mean diameter [8, 14] was roughly 100 nm and the “polydispersity index (PI)” value [8, 14] was 0.2.
